Results published in the OligoGym collection.
Oligonucleotides are written 5' to 3', each unit as a sugar letter and its base; * is a phosphorothioate linkage, no mark a phosphodiester; rarer units and linkages stand in square brackets, end groups in braces. Plain capitals give the bases only. d = 2'-deoxy (DNA); r = 2'-OH (RNA)

Molecular target: UBE2M
Experiment: reporter assay of Huesken 2005
Details: siRNA
Note: test concentration or dose not given here.

Point of comparison: “sense rCrUrUrCrUrCrArGrArUrCrCrArGrArCrGrArCdTdT / antisense rGrUrCrGrUrCrUrGrGrArUrCrUrGrArGrArArGdCdT”, normalised inhibition (eCFP-eYFP dual reporter) 65.6%. Against it:
- sense rArCrGrArUrArArArCrUrCrCrArUrArArUrUrUdTdT / antisense rArArArUrUrArUrGrGrArGrUrUrUrArUrCrGrUdAdA — higher, 82.2%
- sense rArCrGrUrCrUrGrCrCrUrCrArArCrArUrCrCrUdTdT / antisense rArGrGrArUrGrUrUrGrArGrGrCrArGrArCrGrUdTdG — higher, 80.4%
- sense rArGrArArCrArArCrCrGrGrCrGrGrCrUrGrUrUdTdT / antisense rArArCrArGrCrCrGrCrCrGrGrUrUrGrUrUrCrUdGdC — lower, 61.2%
- sense rArGrArArGrArArGrGrArGrGrArGrGrArGrUrCdTdT / antisense rGrArCrUrCrCrUrCrCrUrCrCrUrUrCrUrUrCrUdGdC — lower, 59.4%
- sense rArGrCrArGrCrArArGrArArGrGrCrGrUrCrGrGdTdT / antisense rCrCrGrArCrGrCrCrUrUrCrUrUrGrCrUrGrCrUdGdC — lower, 53%
- sense rArGrCrUrGrArArCrCrUrGrCrCrCrArArGrArCdTdT / antisense rGrUrCrUrUrGrGrGrCrArGrGrUrUrCrArGrCrUdCdG — higher, 71.8%
- sense rArGrGrArCrUrGrGrArArGrCrCrArGrUrCrCrUdTdT / antisense rArGrGrArCrUrGrGrCrUrUrCrCrArGrUrCrCrUdCdT — lower, 54.1%
- sense rArGrGrArGrGrArGrGrArGrUrCrGrGrCrGrGrGdTdT / antisense rCrCrCrGrCrCrGrArCrUrCrCrUrCrCrUrCrCrUdTdC — lower, 41.7%
- sense rArGrGrCrCrGrCrArGrArGrGrUrCrCrUrGrCrAdTdT / antisense rUrGrCrArGrGrArCrCrUrCrUrGrCrGrGrCrCrUdCdC — lower, 65.4%
- sense rArGrGrCrGrUrCrGrGrCrGrGrCrGrCrArGrCrUdTdT / antisense rArGrCrUrGrCrGrCrCrGrCrCrGrArCrGrCrCrUdTdC — lower, 51.7%
- sense rArGrGrGrCrArArCrGrUrCrUrGrCrCrUrCrArAdTdT / antisense rUrUrGrArGrGrCrArGrArCrGrUrUrGrCrCrCrUdCdG — higher, 79.5%
- sense rArGrUrCrCrUrUrArCrGrArUrArArArCrUrCrCdTdT / antisense rGrGrArGrUrUrUrArUrCrGrUrArArGrGrArCrUdGdG — lower, 60.6%
- sense rArGrUrCrGrGrCrGrGrGrCrGrGrCrArCrCrArAdTdT / antisense rUrUrGrGrUrGrCrCrGrCrCrCrGrCrCrGrArCrUdCdC — higher, 73.6%
- sense rArGrUrGrUrGrArGrArCrArArUrGrGrUrCrUrAdTdT / antisense rUrArGrArCrCrArUrUrGrUrCrUrCrArCrArCrUdTdC — higher, 92.1%
- sense rArUrCrCrArGrArArGrGrArCrArUrArArArCrGdTdT / antisense rCrGrUrUrUrArUrGrUrCrCrUrUrCrUrGrGrArUdCdC — lower, 56.4%
- sense rArUrCrUrCrUrUrCrUrUrGrGrArGrCrCrCrArAdTdT / antisense rUrUrGrGrGrCrUrCrCrArArGrArArGrArGrArUdAdC — higher, 77.1%
- sense rArUrGrGrUrCrUrArUrCrArCrCrCrCrArArCrAdTdT / antisense rUrGrUrUrGrGrGrGrUrGrArUrArGrArCrCrArUdTdG — higher, 71.3%
- sense rCrArArCrCrCrCrGrArGrGrArCrCrCrArCrUrGdTdT / antisense rCrArGrUrGrGrGrUrCrCrUrCrGrGrGrGrUrUrGdGdG — lower, 62.8%
- sense rCrArArUrGrGrUrCrUrArUrCrArCrCrCrCrArAdTdT / antisense rUrUrGrGrGrGrUrGrArUrArGrArCrCrArUrUrGdTdC — higher, 86.1%
- sense rCrArCrCrCrCrArArCrArUrUrGrArCrCrUrCrGdTdT / antisense rCrGrArGrGrUrCrArArUrGrUrUrGrGrGrGrUrGdAdT — lower, 62.5%
- sense rCrArGrCrUrUrCrUrCrArGrArUrCrCrArGrArCdTdT / antisense rGrUrCrUrGrGrArUrCrUrGrArGrArArGrCrUrGdAdT — higher, 79.3%
- sense rCrArUrGrCrGrGrGrGrUrGrGrCrUrArCrArUrCdTdT / antisense rGrArUrGrUrArGrCrCrArCrCrCrCrGrCrArUrGdGdA — higher, 67.7%
- sense rCrCrGrCrArGrArGrGrUrCrCrUrGrCrArGrArAdTdT / antisense rUrUrCrUrGrCrArGrGrArCrCrUrCrUrGrCrGrGdCdC — higher, 67.1%
- sense rCrCrUrGrArUrGrArGrGrGrCrUrUrCrUrArCrAdTdT / antisense rUrGrUrArGrArArGrCrCrCrUrCrArUrCrArGrGdAdC — higher, 77.9%
- sense rCrGrArGrCrUrGrArArCrCrUrGrCrCrCrArArGdTdT / antisense rCrUrUrGrGrGrCrArGrGrUrUrCrArGrCrUrCrGdTdT — higher, 71.9%
- sense rCrGrGrCrGrGrCrGrCrArGrCrUrGrCrGrGrArUdTdT / antisense rArUrCrCrGrCrArGrCrUrGrCrGrCrCrGrCrCrGdAdC — higher, 69.9%
- sense rCrGrGrGrGrUrGrGrCrUrArCrArUrCrGrGrCrUdTdT / antisense rArGrCrCrGrArUrGrUrArGrCrCrArCrCrCrCrGdCdA — lower, 54.3%
- sense rCrUrArCrArArGrArGrUrGrGrGrArArGrUrUrUdTdT / antisense rArArArCrUrUrCrCrCrArCrUrCrUrUrGrUrArGdAdA — higher, 87.3%
- sense rCrUrGrArArCrArArGrGrArGrGrCrCrGrCrArGdTdT / antisense rCrUrGrCrGrGrCrCrUrCrCrUrUrGrUrUrCrArGdTdG — higher, 68.6%
- sense rCrUrGrCrArGrArArCrArArCrCrGrGrCrGrGrCdTdT / antisense rGrCrCrGrCrCrGrGrUrUrGrUrUrCrUrGrCrArGdGdA — lower, 64.1%
- sense rCrUrGrGrUrCrArUrCrUrGrUrCrCrUrGrArUrGdTdT / antisense rCrArUrCrArGrGrArCrArGrArUrGrArCrCrArGdCdT — higher, 76.7%
- sense rCrUrUrCrArArGrCrUrGrGrUrCrArUrCrUrGrUdTdT / antisense rArCrArGrArUrGrArCrCrArGrCrUrUrGrArArGdTdT — higher, 77%
- sense rCrUrUrCrUrArCrArArGrArGrUrGrGrGrArArGdTdT / antisense rCrUrUrCrCrCrArCrUrCrUrUrGrUrArGrArArGdCdC — higher, 75.9%
- sense rCrUrUrCrUrUrGrGrArGrCrCrCrArArCrCrCrCdTdT / antisense rGrGrGrGrUrUrGrGrGrCrUrCrCrArArGrArArGdAdG — lower, 61.3%
- sense rCrUrUrGrGrArGrCrCrCrArArCrCrCrCrGrArGdTdT / antisense rCrUrCrGrGrGrGrUrUrGrGrGrCrUrCrCrArArGdAdA — lower, 64.5%
- sense rGrArCrArArUrGrGrUrCrUrArUrCrArCrCrCrCdTdT / antisense rGrGrGrGrUrGrArUrArGrArCrCrArUrUrGrUrCdTdC — lower, 61.8%
- sense rGrArGrGrArGrUrCrGrGrCrGrGrGrCrGrGrCrAdTdT / antisense rUrGrCrCrGrCrCrCrGrCrCrGrArCrUrCrCrUrCdCdT — lower, 59.9%
- sense rGrArGrUrCrGrGrCrGrGrGrCrGrGrCrArCrCrAdTdT / antisense rUrGrGrUrGrCrCrGrCrCrCrGrCrCrGrArCrUrCdCdT — lower, 53%
- sense rGrArUrArUrCrArGrCrUrUrCrUrCrArGrArUrCdTdT / antisense rGrArUrCrUrGrArGrArArGrCrUrGrArUrArUrCdAdC — lower, 60.5%
- sense rGrArUrGrArGrGrGrCrUrUrCrUrArCrArArGrAdTdT / antisense rUrCrUrUrGrUrArGrArArGrCrCrCrUrCrArUrCdAdG — higher, 82.7%
- sense rGrCrArGrArGrGrUrCrCrUrGrCrArGrArArCrAdTdT / antisense rUrGrUrUrCrUrGrCrArGrGrArCrCrUrCrUrGrCdGdG — higher, 69.9%
- sense rGrCrArGrCrArGrCrArArGrArArGrGrCrGrUrCdTdT / antisense rGrArCrGrCrCrUrUrCrUrUrGrCrUrGrCrUrGrCdCdC — lower, 61%
- sense rGrCrCrArGrUrCrCrUrUrArCrGrArUrArArArCdTdT / antisense rGrUrUrUrArUrCrGrUrArArGrGrArCrUrGrGrCdTdT — higher, 68.5%
- sense rGrGrArCrCrCrArCrUrGrArArCrArArGrGrArGdTdT / antisense rCrUrCrCrUrUrGrUrUrCrArGrUrGrGrGrUrCrCdTdC — lower, 63.1%
- sense rGrGrCrCrArGrGrGrUrUrArCrCrCrGrCrArUrGdTdT / antisense rCrArUrGrCrGrGrGrUrArArCrCrCrUrGrGrCrCdCdA — higher, 73.8%
- sense rGrGrCrCrGrCrArGrArGrGrUrCrCrUrGrCrArGdTdT / antisense rCrUrGrCrArGrGrArCrCrUrCrUrGrCrGrGrCrCdTdC — higher, 66.4%
- sense rGrGrCrCrUrGrCrArGrUrArUrCrUrCrUrUrCrUdTdT / antisense rArGrArArGrArGrArUrArCrUrGrCrArGrGrCrCdAdT — higher, 80.2%
- sense rGrGrCrGrGrCrGrCrArGrCrUrGrCrGrGrArUrCdTdT / antisense rGrArUrCrCrGrCrArGrCrUrGrCrGrCrCrGrCrCdGdA — higher, 71.7%
- sense rGrGrCrGrGrCrUrGrUrUrUrGrArGrCrArGrArAdTdT / antisense rUrUrCrUrGrCrUrCrArArArCrArGrCrCrGrCrCdGdG — higher, 76.6%
- sense rGrGrGrCrArGrCrArGrCrArArGrArArGrGrCrGdTdT / antisense rCrGrCrCrUrUrCrUrUrGrCrUrGrCrUrGrCrCrCdTdT — lower, 58.9%
- sense rGrGrGrCrCrArGrGrGrUrUrArCrCrCrGrCrArUdTdT / antisense rArUrGrCrGrGrGrUrArArCrCrCrUrGrGrCrCrCdAdC — higher, 79.3%
